In ChEMBL document CHEMBL4837230, “Thiophene-2-carboxamide derivatives of anthraquinone: A new potent antitumor chemotype” (Eur J Med Chem, 2021):
Active and inactive are the calls of the source. The calls are words filed in the database; no cut-off is given here.

Assays:
K562 [1] = experiment: Cytotoxicity in human K562 cells assessed as reduction in cell viability at 2.5 uM incubated with compound for 30 mins followed by cell washing and measured after 72 hrs by propidium iodide staining based flow cytometric analysis; assay type: functional; conditions: 0.5 h
K562 [2] = experiment: Induction of ROS generation in human K562 cells at 2.5 uM after 15 to 75 mins by Deep Red dye based flow cytometry method; assay type: functional, cell-based; conditions: time 15-75 min
Fibroblast = experiment: Cytotoxicity in human Fibroblast cells assessed as reduction in cell viability incubated for 72 hrs by MTT assay; assay type: functional, cell-based
K562 [3] = experiment: Cytotoxicity against human K562 cells in presence of NAC; assay type: functional, cell-based
HeLa = experiment: Cytotoxicity in human HeLa cells assessed as reduction in cell viability incubated for 72 hrs by MTT assay; assay type: functional, cell-based
K562 [4] = experiment: Induction of apoptosis in human K562 cells assessed as viable cells after 24 hrs by Annexin V-APC/PI double staining based flow cytometric analysis (reference value: 91%); assay type: functional
K562 [5] = experiment: Induction of cell cycle arrest in human K562 cells assessed as increase in accumulation at G2/M phase at 2.5 uM after 2 hrs by flow cytometric analysis (reference value: 15.2%); assay type: functional
[6] = Resistance index, ratio of IC50 for cytotoxicity against p53 knock out human HCT-116 cells to IC50 for cytotoxicity against human HCT-116 cells; assay type: functional
HCT-116 [7] = experiment: Cytotoxicity against p53 knock out human HCT-116 cells assessed as reduction in cell viability incubated for 72 hrs by MTT assay; assay type: functional, cell-based; conditions: HCT-116, 72 h
[8] = target: T1, DNA topoisomerase 1 (Homo sapiens) (UniProt P11387); experiment: Inhibition of topoisomerase 1 (unknown origin) assessed as relaxation of supercoiled plasmid pBR322 DNA at 1 to 5 uM incubated for 30 mins by electrophoresis; conditions: dose 1-5 µM
T1 sequence (whole entry): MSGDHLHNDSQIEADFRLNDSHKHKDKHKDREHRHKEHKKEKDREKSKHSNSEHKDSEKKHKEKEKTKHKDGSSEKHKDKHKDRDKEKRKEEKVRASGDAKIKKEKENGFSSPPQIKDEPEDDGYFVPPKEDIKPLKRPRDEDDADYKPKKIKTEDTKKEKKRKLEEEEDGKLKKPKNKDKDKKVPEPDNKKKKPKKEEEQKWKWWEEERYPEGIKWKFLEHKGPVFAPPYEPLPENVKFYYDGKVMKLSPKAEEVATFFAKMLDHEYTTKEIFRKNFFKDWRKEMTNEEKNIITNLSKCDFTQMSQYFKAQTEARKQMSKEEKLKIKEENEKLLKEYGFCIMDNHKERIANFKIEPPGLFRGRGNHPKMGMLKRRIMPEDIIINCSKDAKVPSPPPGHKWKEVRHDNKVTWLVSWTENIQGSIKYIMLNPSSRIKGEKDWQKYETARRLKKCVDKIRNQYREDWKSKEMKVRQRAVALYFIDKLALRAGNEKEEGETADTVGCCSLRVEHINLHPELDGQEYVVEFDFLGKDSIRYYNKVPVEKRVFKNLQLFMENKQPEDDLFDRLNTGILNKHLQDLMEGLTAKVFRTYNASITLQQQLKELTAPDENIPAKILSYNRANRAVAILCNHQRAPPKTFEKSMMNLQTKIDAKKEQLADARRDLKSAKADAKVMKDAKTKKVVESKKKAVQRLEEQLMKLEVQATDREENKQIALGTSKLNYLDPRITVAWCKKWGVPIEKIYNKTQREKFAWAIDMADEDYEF

K562 [9] = experiment: Induction of cell cycle arrest in human K562 cells assessed as increase in accumulation at S phase at 2.5 uM after 6 hrs by flow cytometric analysis (reference value: 37%); assay type: functional
K562 [10] = experiment: Induction of apoptosis in human K562 cells assessed as activation of casapse-9 cleavage at 2.5 uM measured after 6 hrs by Western blot analysis; assay type: functional, cell-based
K562 [11] = experiment: Cytotoxicity in human K562 cells assessed as reduction in cell viability at 2.5 uM incubated with compound for 60 mins followed by cell washing and measured after72 hrs by propidium iodide staining based flow cytometric analysis; assay type: functional; conditions: 1 h
U-937 = experiment: Cytotoxicity in human U-937 cells assessed as reduction in cell viability incubated for 72 hrs by MTT assay; assay type: functional, cell-based; conditions: U-937, 72 h
K562 [12] = experiment: Induction of apoptosis in human K562 cells assessed as necrotic cells after 3 hrs by Annexin V-APC/PI double staining based flow cytometric analysis (reference value: 6.3%); assay type: functional
K562 [13] = experiment: Induction of cell cycle arrest in human K562 cells assessed as increase in accumulation at S phase at 2.5 uM by flow cytometric analysis (reference value: 11.2%); assay type: functional
[14] = Drug localization in lysosome of mouse NIH3T3 cells at 1 uM incubated for 60 mins by lyso-tracker red based confocal microscopic method; assay type: ADME, cell-based; conditions: nih3t3, 1 h
CAPAN-1 = experiment: Cytotoxicity in human CAPAN-1 cells assessed as reduction in cell viability incubated for 72 hrs by MTT assay; assay type: functional, cell-based; conditions: CAPAN-1, 72 h
HCT-116 [15] = experiment: Cytotoxicity in human HCT-116 cells assessed as reduction in cell viability incubated for 72 hrs by MTT assay; assay type: functional, cell-based; conditions: HCT-116, 72 h
K562 [16] = experiment: Induction of cell cycle arrest in human K562 cells assessed as increase in accumulation at sub-G1 phase at 5 uM after 48 hrs by propidium iodide staining based flow cytometric analysis (reference value: 8.4%); assay type: functional
K562 [17] = experiment: Induction of cell cycle arrest in human K562 cells assessed as increase in accumulation at S phase at 2.5 uM after 2 hrs by flow cytometric analysis (reference value: 23.1%); assay type: functional
Calf thymus DNA = experiment: Binding affinity to calf thymus double strand DNA incubated for 5 mins by spectrophotometry; assay type: nucleic-acid assay; conditions: Bos taurus
K562 [18] = experiment: Cytotoxicity in human K562 cells assessed as reduction in cell viability at 1 uM incubated with compound for 60 mins followed by cell washing and measured after 72 hrs by propidium iodide staining based flow cytometric analysis; assay type: functional
K562 [19] = experiment: Induction of apoptosis in human K562 cells assessed as late apoptotic cells after 3 hrs by Annexin V-APC/PI double staining based flow cytometric analysis (reference value: 2.6%); assay type: functional
[20] = Cytotoxicity in human K562/4 cells assessed as reduction in cell viability incubated for 72 hrs by MTT assay; assay type: functional, cell-based; conditions: K562/4, 72 h
K562 [21] = experiment: Induction of mitochondrial membrane potential loss in human K562 cells at 2.5 uM after 3 hrs by Mitotracker Red dye based flow cytometric analysis(reference value: 7.8 %); assay type: functional
K562 [22] = experiment: Induction of cell cycle arrest in human K562 cells assessed as increase in accumulation at sub-G1 phase at 0.5 uM after 48 hrs by propidium iodide staining based flow cytometric analysis (reference value: 8.4%); assay type: functional
HL-60 = experiment: Cytotoxicity in human HL-60 cells assessed as reduction in cell viability incubated for 72 hrs by MTT assay; assay type: functional, cell-based; conditions: HL-60, 72 h
[23] = Drug localization in lysosome of mouse NIH3T3 cells at 1 uM incubated for 5 mins by lyso-tracker red based confocal microscopic method; assay type: ADME, cell-based; conditions: nih3t3, 5 min
K562 [24] = experiment: Cytotoxicity in human K562 cells assessed as reduction in cell viability at 0.5 uM incubated with compound for 120 mins followed by cell washing and measured after 72 hrs by propidium iodide staining based flow cytometric analysis; assay type: functional; conditions: 2 h

N[C@H]1CCN(C(=O)c2cc3c(O)c4c(c(O)c3s2)C(=O)c2ccccc2C4=O)C1
Activity (K562 [1]): 67.4% | Activity (K562 [2]): inactive | IC50 (Fibroblast): 1400 nM | Activity (K562 [3]): Active | IC50 (HeLa): 400 nM | Activity (K562 [4]): 1.8% | Activity (K562 [5]): 15.9% | Ratio [6]: 1 | IC50 (HCT-116 [7]): 500 nM | inhibition [8]: inactive | Activity (K562 [9]): 29.8% | Activity (K562 [10]): Active | Activity (K562 [11]): 63.4% | IC50 (U-937): 200 nM | Activity (K562 [12]): 38.2% | Activity (K562 [13]): 12% | Drug uptake [14]: Active | IC50 (CAPAN-1): 700 nM | IC50 (HCT-116 [15]): 500 nM | Activity (K562 [16]): 89.7% | Activity (K562 [17]): 27.8% | Activity (Calf thymus DNA): inactive | Activity (K562 [18]): 6.3% | Activity (K562 [19]): 13.2% | IC50 [20]: 400 nM | Activity (K562 [21]): 19.8% | Activity (K562 [22]): 33.2% | IC50 (HL-60): 300 nM | Drug uptake [23]: Active | Activity (K562 [24]): 8.7%
